Reference: ChEMBL document CHEMBL4130348, “Structure-activity relationship investigation for benzonaphthyridinone derivatives as novel potent Bruton's tyrosine kinase (BTK) irreversible inhibitors” (Eur J Med Chem, 2017)

Tests used:
[1] = target: Tyrosine-protein kinase Blk (Homo sapiens, UniProt P51451); assay: Inhibition of recombinant full length His-tagged human BLK expressed in baculovirus expression system using poly (4:1 Glu, Tyr) as substrate preincubated for 1 hr followed by substrate addition measured after 1 hr by ADP-glo assay
Chain of Tyrosine-protein kinase Blk (P51451 whole entry): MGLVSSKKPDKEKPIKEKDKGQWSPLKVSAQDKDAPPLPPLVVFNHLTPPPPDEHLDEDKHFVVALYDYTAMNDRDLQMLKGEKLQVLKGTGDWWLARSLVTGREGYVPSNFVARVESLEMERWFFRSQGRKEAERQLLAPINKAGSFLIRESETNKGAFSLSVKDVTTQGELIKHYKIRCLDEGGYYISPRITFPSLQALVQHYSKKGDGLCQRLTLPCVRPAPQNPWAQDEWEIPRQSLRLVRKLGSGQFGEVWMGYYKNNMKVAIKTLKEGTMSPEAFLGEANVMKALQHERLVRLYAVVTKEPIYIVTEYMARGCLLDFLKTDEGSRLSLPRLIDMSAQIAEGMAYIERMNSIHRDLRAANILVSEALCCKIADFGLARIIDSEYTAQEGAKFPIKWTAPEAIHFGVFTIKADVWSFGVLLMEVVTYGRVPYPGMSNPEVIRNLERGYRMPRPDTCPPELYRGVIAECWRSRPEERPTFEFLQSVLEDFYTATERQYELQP

[2] = target: T1, Tyrosine-protein kinase JAK3 (Homo sapiens, UniProt P52333); assay: Inhibition of recombinant GST-tagged human JAK3 expressed in baculovirus expression system using poly (4:1 Glu, Tyr) as substrate preincubated for 1 hr followed by substrate addition measured after 1 hr by ADP-glo assay
T1 sequence (P52333 whole entry): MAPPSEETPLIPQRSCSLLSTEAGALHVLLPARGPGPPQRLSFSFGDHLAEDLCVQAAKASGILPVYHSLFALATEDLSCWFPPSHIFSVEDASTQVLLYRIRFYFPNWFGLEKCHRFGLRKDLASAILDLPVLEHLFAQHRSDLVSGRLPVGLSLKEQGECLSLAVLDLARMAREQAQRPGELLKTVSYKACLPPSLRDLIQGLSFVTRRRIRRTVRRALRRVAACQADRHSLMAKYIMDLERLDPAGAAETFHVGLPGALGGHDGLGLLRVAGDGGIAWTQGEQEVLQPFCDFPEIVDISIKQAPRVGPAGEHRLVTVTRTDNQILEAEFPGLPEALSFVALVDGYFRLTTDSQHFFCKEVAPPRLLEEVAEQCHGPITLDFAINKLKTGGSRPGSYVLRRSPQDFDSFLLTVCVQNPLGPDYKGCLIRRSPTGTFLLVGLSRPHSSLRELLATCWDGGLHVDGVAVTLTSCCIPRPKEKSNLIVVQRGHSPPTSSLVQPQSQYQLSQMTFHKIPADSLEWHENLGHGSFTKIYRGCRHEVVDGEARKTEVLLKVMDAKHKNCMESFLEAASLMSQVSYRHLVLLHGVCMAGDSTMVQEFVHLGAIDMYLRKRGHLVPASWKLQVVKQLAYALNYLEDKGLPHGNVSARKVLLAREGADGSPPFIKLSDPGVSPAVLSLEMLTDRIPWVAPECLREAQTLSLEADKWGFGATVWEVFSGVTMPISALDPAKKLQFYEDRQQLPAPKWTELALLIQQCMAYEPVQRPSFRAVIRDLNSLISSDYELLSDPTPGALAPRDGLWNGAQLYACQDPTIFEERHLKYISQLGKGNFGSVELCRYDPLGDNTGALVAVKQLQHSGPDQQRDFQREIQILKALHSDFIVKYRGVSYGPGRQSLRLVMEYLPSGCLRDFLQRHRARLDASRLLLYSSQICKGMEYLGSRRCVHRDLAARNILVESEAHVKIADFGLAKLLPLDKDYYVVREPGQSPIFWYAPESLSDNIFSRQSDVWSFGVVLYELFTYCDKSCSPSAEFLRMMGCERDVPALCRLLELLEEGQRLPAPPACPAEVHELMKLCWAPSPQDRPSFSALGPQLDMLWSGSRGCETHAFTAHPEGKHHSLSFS

[3] = target: T2, Tyrosine-protein kinase BTK (Homo sapiens, UniProt Q06187); assay: Inhibition of recombinant full length His-tagged human BTK expressed in baculovirus expression system using poly (4:1 Glu, Tyr) as substrate preincubated for 1 hr followed by substrate addition measured after 1 hr by ADP-glo assay
T2 sequence (Q06187 whole entry): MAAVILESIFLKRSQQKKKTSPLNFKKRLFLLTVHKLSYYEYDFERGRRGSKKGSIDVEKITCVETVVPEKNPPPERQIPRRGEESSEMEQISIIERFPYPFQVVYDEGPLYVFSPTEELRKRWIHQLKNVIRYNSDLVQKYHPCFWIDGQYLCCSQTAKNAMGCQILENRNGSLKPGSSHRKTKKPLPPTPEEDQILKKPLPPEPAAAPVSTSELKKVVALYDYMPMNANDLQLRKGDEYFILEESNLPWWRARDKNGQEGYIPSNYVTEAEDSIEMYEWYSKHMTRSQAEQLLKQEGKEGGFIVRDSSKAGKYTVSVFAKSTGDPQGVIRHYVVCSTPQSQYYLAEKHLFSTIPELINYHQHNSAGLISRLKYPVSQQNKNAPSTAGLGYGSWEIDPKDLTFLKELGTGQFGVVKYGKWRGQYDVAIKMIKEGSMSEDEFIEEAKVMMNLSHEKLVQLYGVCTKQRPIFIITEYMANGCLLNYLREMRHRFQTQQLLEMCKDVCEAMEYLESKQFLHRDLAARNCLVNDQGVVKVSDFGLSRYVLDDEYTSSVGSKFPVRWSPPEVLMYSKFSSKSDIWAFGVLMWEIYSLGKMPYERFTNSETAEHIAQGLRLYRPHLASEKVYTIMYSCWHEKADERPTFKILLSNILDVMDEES

[4] = target: T2, Tyrosine-protein kinase BTK; assay: Irreversible inhibition of recombinant full length His-tagged human BTK expressed in baculovirus expression system using poly (4:1 Glu, Tyr) as substrate assessed as ratio of Kinact to Ki preincubated for 2 to 60 mins followed by substrate addition measured after 1 hr by ADP-glo assay
[5] = target: T2, Tyrosine-protein kinase BTK; assay: Irreversible inhibition of recombinant full length His-tagged human BTK expressed in baculovirus expression system using poly (4:1 Glu, Tyr) as substrate preincubated for 2 to 60 mins followed by substrate addition measured after 1 hr by ADP-glo assay

| Structure (SMILES) | IC50 [1] [nM] | IC50 [2] [nM] | IC50 [3] [nM] | Ratio [4] [µM⁻¹ s⁻¹] | Ki [5] [nM] | Kinact [5] [min⁻¹] |
| --- | --- | --- | --- | --- | --- | --- |
| C=CC(=O)Nc1cc(-n2c(=O)ccc3cnc4ccc(-c5ccoc5)cc4c32)ccc1C | 2090 | 17.4 | – | – | – | – |
| C=CC(=O)Nc1cccc(-n2c(=O)ccc3cnc4ccc(-c5cn[nH]c5)cc4c32)c1 | 293 | 224 | – | – | – | – |
| C=CC(=O)N1CCc2ccc(-n3c(=O)ccc4cnc5ccc(-c6cnc7ccccc7c6)cc5c43)cc21 | 191 | 983 | 7.15 | – | – | – |
| C=CC(=O)Nc1cc(-n2c(=O)ccc3cnc4ccc(-c5ccc(NC(=O)NC)cc5)cc4c32)ccc1C | 1130 | 218 | 79.1 | – | – | – |
| C=CC(=O)N1CCc2ccc(-n3c(=O)ccc4cnc5ccc(-c6ccc(S(=O)(=O)NC(C)(C)C)cc6)cc5c43)cc21 | 83.6 | > 10000 | – | – | – | – |
| C=CC(=O)N1CCc2ccc(-n3c(=O)ccc4cnc5ccc(-c6ccc(N7CCN(C)CC7)cc6)cc5c43)cc21 | > 10000 | 1560 | – | – | – | – |
| C=CC(=O)Nc1cc(-n2c(=O)ccc3cnc4ccc(-c5cn[nH]c5)cc4c32)ccc1C | – | – | – | 1.17 | 2 | 0.14 |
| C=CC(=O)Nc1cc(-n2c(=O)ccc3cnc4ccc(-c5ccc(COc6cccc(C(F)(F)F)c6)cc5)cc4c32)ccc1C | 2060 | 650 | – | – | – | – |
